Earlier results on three compounds are cited in patent publication US20060222709A1 (AGI Therapeutics Research Ltd., priority 2005, published 2006).

The test system of data set [1] is patients with chronic constipation. The conditions noted are these: two trials.
Data set [2] relates to women patients with IBS-C. The conditions noted are these: 6 mg twice daily.

`OC[C@H]1O[C@@H](O[C@@H]2[C@@H](CO)OC(O)(CO)[C@H]2O)[C@H](O)[C@@H](O)[C@H]1O` (mixture of isomers) [lactulose]: the “stool frequency and consistency versus placebo” value in data set [1] was “more effective than placebo”.
Turning to `CN(C)C(=N)N=C(N)N` [metformin, dimethylbiguanide], where the note is “human, in vivo”, the “acute, reversible adverse effects, mainly of gastrointestinal tract origin, patients affected” value was “up to 20%”. Also, for the setting “treated diabetes patients (Bytzer 2001)”, the prevalence of diarrhea was 20%.
Consider `CCCCCNC(=N)N/N=C/c1c[nH]c2ccc(OC)cc12.O=C(O)/C=C\C(=O)O` [tegaserod, 3-(5-methoxy-1H-indol-3-ylmethylene)-N-pentylcarbazimidamide hydrogen maleate], for which the “global and individual symptoms” value in data set [2] is “effectively improves global and individual symptoms”.
